The results in this text go back to PubChem BioAssay (NCI).

Test systems include K-562 leukemia; SK-MEL-28 melanoma; HCT-116 colon; OVCAR-8 ovarian; UACC-257 melanoma; SF-268 CNS; NCI-H460 lung; DMS 114 small cell lung; SNB-75 CNS; OVCAR-4 ovarian; IGROV1 ovarian; SW-620 colon.
Test in all cases: NCI tumour cell line growth inhibition, 48 h

Structures are written as SMILES.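 Assay format: 96-well plates, 48-hour exposure. At the GI50, growth is halved. TGI denotes the concentration required for complete inhibition of growth.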 A value given as a limit tells only on which side of the number the result lay.

Turning to `Cc1ccc(S(=O)(=O)Nc2cccc3c(=O)[nH]cnc23)cc1`, the TGI with K-562 leukemia, in the test on SK-MEL-28 melanoma, with HCT-116 colon, in the test on OVCAR-8 ovarian, in the test with UACC-257 melanoma and with SF-268 CNS was more than 100 µM in each case. The TGI in the test with NCI-H460 lung, with DMS 114 small cell lung, with SNB-75 CNS, with OVCAR-4 ovarian, with IGROV1 ovarian and with SW-620 colon was more than 100 µM each time.
As for `CN(C)CCNC(=O)c1cccc2c(=O)c3ccccc3oc12`, the TGI in the test with K-562 leukemia was more than 100 µM; in the test with SK-MEL-28 melanoma, more than 100 µM; in the test with HCT-116 colon, more than 100 µM; in the test on OVCAR-8 ovarian, more than 83.5 µM; in the test with UACC-257 melanoma, 74.4 µM; in the test with SF-268 CNS it was more than 100 µM. Moreover, the TGI with NCI-H460 lung was more than 79.5 µM; in the test with DMS 114 small cell lung, more than 69.8 µM; in the test on SNB-75 CNS, more than 87.3 µM; in the test on OVCAR-4 ovarian, more than 90.5 µM; in the test on IGROV1 ovarian, more than 100 µM; in the test on SW-620 colon it was more than 100 µM.
Turning to `COC1OC(CS(=O)(=O)O)C(O)C(O)C1O` (configuration not stated), the TGI with K-562 leukemia, in the test with SK-MEL-28 melanoma, in the test with HCT-116 colon, in the test with OVCAR-8 ovarian, in the test with UACC-257 melanoma and with NCI-H460 lung was more than 100 µM in each case. For the same compound, the TGI in the test with SNB-75 CNS, in the test on OVCAR-4 ovarian, in the test with IGROV1 ovarian and with SW-620 colon was more than 100 µM each time.
For `O=C1C=C(C2OC(CO)C(O)C2O)C(=O)N1` (configuration not stated), the TGI in the test on K-562 leukemia, in the test with SK-MEL-28 melanoma, in the test with HCT-116 colon, with OVCAR-8 ovarian, with UACC-257 melanoma and in the test on SF-268 CNS was more than 100 µM throughout. For the same compound, the TGI with NCI-H460 lung, with DMS 114 small cell lung, in the test on SNB-75 CNS, in the test on OVCAR-4 ovarian, in the test with IGROV1 ovarian and with SW-620 colon was more than 100 µM throughout.
Regarding `C=C1C(=O)OC2/C=C(\C(=O)O)CC/C=C(\C)CC(OC(=O)/C=C(\C)CC)C12` (configuration not stated), the TGI was more than 100 µM with K-562 leukemia; 34.2 µM in the test with SK-MEL-28 melanoma; 25.6 µM in the test with HCT-116 colon; 33.9 µM in the test on OVCAR-8 ovarian; 39.9 µM in the test with UACC-257 melanoma; 30.6 µM in the test on SF-268 CNS. Further, the TGI with NCI-H460 lung is 30.7 µM; in the test with DMS 114 small cell lung, 30.2 µM; in the test with SNB-75 CNS, 47.6 µM; with OVCAR-4 ovarian, 45.1 µM; in the test on IGROV1 ovarian, 40.9 µM; in the test with SW-620 colon, 31.3 µM.
Consider `O=C(c1ccccc1)c1ccc2n[se]nc2c1`, for which the TGI was more than 100 µM in the test on K-562 leukemia; more than 100 µM with SK-MEL-28 melanoma; more than 100 µM with OVCAR-8 ovarian; more than 100 µM with UACC-257 melanoma; more than 100 µM with SF-268 CNS; 60 µM in the test on DMS 114 small cell lung. Also, the TGI in the test on SNB-75 CNS, in the test on OVCAR-4 ovarian, in the test on IGROV1 ovarian and with SW-620 colon was more than 100 µM each time.
Take `CC1(C)[C@@H]2CC[C@]1(C)[C@H](OC(=O)CSC#N)C2`: the TGI with SK-MEL-28 melanoma, with HCT-116 colon, in the test on OVCAR-8 ovarian, in the test on UACC-257 melanoma, in the test with SF-268 CNS and in the test with NCI-H460 lung was more than 100 µM in each case. In addition, the TGI in the test on SNB-75 CNS was more than 100 µM; with OVCAR-4 ovarian, more than 100 µM; with IGROV1 ovarian it was more than 100 µM; with SW-620 colon, 35.4 µM.
As for `CC1=C2C(O)C(C(C)C(=O)N(C)C)CCC2(C)C=CC1=O` (configuration not stated), the TGI in the test with K-562 leukemia, in the test on SK-MEL-28 melanoma, in the test with HCT-116 colon, in the test with OVCAR-8 ovarian, in the test with UACC-257 melanoma and in the test with SF-268 CNS was more than 100 µM in each case. The TGI in the test on NCI-H460 lung, in the test on DMS 114 small cell lung, with SNB-75 CNS, in the test on OVCAR-4 ovarian, in the test on IGROV1 ovarian and in the test with SW-620 colon was more than 100 µM each time.
As to `CC(=O)C(C(c1ccccc1)N1CCOCC1)N1CCOCC1` (configuration not stated), the TGI in the test with K-562 leukemia is more than 100 µM; in the test on SK-MEL-28 melanoma, more than 100 µM; in the test on HCT-116 colon, more than 100 µM; with OVCAR-8 ovarian, more than 100 µM; in the test with UACC-257 melanoma, 38.9 µM; in the test with SF-268 CNS, more than 100 µM. In addition, the TGI in the test with NCI-H460 lung is 36.3 µM; in the test on SNB-75 CNS, more than 100 µM; in the test with OVCAR-4 ovarian, more than 100 µM; in the test with IGROV1 ovarian it was more than 100 µM; with SW-620 colon, more than 100 µM.
For the compound `CCCC(C)c1ccc(OCCCCCCN2CCNCC2)cc1` (configuration not stated), the GI50 in the test with K-562 leukemia is 1.51 µM; with SK-MEL-28 melanoma it was 1.84 µM; in the test with UACC-257 melanoma, 2.05 µM; with SF-268 CNS it was 2.97 µM; in the test on NCI-H460 lung it was 1.65 µM; in the test on SNB-75 CNS, 1.41 µM. Also, the GI50 in the test with IGROV1 ovarian was 1.92 µM; in the test on SW-620 colon, 1.72 µM. Also, the TGI in the test on K-562 leukemia was 3.97 µM; in the test on SK-MEL-28 melanoma, 3.65 µM; with UACC-257 melanoma, 4.72 µM; in the test with SF-268 CNS it was 9.89 µM; in the test with NCI-H460 lung it was 3.39 µM; in the test with SNB-75 CNS it was 3.06 µM. In addition, the figures for the TGI in the test with IGROV1 ovarian and in the test on SW-620 colon were 3.78 µM and 3.57 µM, respectively.
Regarding `CCOP(=Nc1ccc(N(C)C)cc1)(OCC)OCC`, the TGI in the test on K-562 leukemia, with SK-MEL-28 melanoma, in the test with HCT-116 colon, in the test on OVCAR-8 ovarian, in the test on UACC-257 melanoma and in the test on SF-268 CNS was more than 100 µM throughout. In addition, the TGI in the test on NCI-H460 lung, in the test on SNB-75 CNS, in the test on OVCAR-4 ovarian and in the test on IGROV1 ovarian was more than 100 µM throughout.
